# In the supplement of paper PMC13380429:
# How the values were obtained:
# Conditions in all cases: 72 h
# Caco-2 [1] = test: cell viability relative to DMSO; higher = less toxic
# Calu-3 [2] = test: as above
# HepG2 [3] = test: as above
# U2OS [4] = test: as above
# Vero E6 [5] = test: as above
# Caco-2 [6] = test: relative viability EC50 (midpoint between 100% and the lowest measured viability); higher = less toxic
# Calu-3 [7] = test: as above
# HepG2 [8] = test: as above
# U2OS [9] = test: as above
# Vero E6 [10] = test: as above
# Caco-2 [11] = test: drug sensitivity score (DSS) for viability; higher = more toxic; extreme values may be limits of the assay
# Calu-3 [12] = test: as above
# HepG2 [13] = test: as above
# U2OS [14] = test: as above
# Vero E6 [15] = test: as above
Structure (SMILES),cell viability (Caco-2 [1]; 1 nM) [%],cell viability (Caco-2 [1]; 10 nM) [%],cell viability (Caco-2 [1]; 100 nM) [%],cell viability (Caco-2 [1]; 1000 nM) [%],cell viability (Caco-2 [1]; 10000 nM) [%],cell viability (Calu-3 [2]; 1 nM) [%],cell viability (Calu-3 [2]; 10 nM) [%],cell viability (Calu-3 [2]; 100 nM) [%],cell viability (Calu-3 [2]; 1000 nM) [%],cell viability (Calu-3 [2]; 10000 nM) [%],cell viability (HepG2 [3]; 1 nM) [%],cell viability (HepG2 [3]; 10 nM) [%],cell viability (HepG2 [3]; 100 nM) [%],cell viability (HepG2 [3]; 1000 nM) [%],cell viability (HepG2 [3]; 10000 nM) [%],cell viability (U2OS [4]; 1 nM) [%],cell viability (U2OS [4]; 10 nM) [%],cell viability (U2OS [4]; 100 nM) [%],cell viability (U2OS [4]; 1000 nM) [%],cell viability (U2OS [4]; 10000 nM) [%],cell viability (Vero E6 [5]; 1 nM) [%],cell viability (Vero E6 [5]; 10 nM) [%],cell viability (Vero E6 [5]; 100 nM) [%],cell viability (Vero E6 [5]; 1000 nM) [%],cell viability (Vero E6 [5]; 10000 nM) [%],relative viability EC50 (Caco-2 [6]) [µM],relative viability EC50 (Calu-3 [7]) [µM],relative viability EC50 (HepG2 [8]) [µM],relative viability EC50 (U2OS [9]) [µM],relative viability EC50 (Vero E6 [10]) [µM],drug sensitivity score (Caco-2 [11]),drug sensitivity score (Calu-3 [12]),drug sensitivity score (HepG2 [13]),drug sensitivity score (U2OS [14]),drug sensitivity score (Vero E6 [15])
CNCC(O)c1ccc(O)c(O)c1 (racemic) [DL-Adrenaline],94.8,97.8,90.1,93.7,95.7,99.8,98.3,92.4,92.7,105,105,90.8,110,99.4,113,98.7,99.6,89,99.9,103,95.3,93.2,96.6,93.8,104,> 10,> 10,> 10,> 10,> 10,0,0,0,0,0
N[C@H]1C[C@@H]1c1ccccc1 (racemic) [tranylcypromine],90.7,106,93.7,104,104,92.5,97.7,97.6,100,99.7,104,103,97,98.5,100,96.6,102,97.7,103,103,100,99.8,93.3,97.1,108,> 10,> 10,> 10,> 10,> 10,0,0,0,0,0
O=C(c1ccc(F)cc1)C1CCN(CCCCc2ccccc2)CC1 [4-(4-fluorobenzoyl)-1-(4-phenylbutyl)-piperidine],98.9,99.6,106,90.4,94.9,104,106,87.9,106,85.8,101,96,95.2,101,79.4,99.4,96.8,96.8,95.9,98.2,103,105,102,98.9,95.7,> 10,> 10,> 10,> 10,> 10,0,0.1,0.6,0,0
OCc1cncc(F)c1 [5-fluoro-3-pyridyl-methanol],96,106,102,107,106,101,97.2,95.1,99.3,99.9,106,104,109,97.2,102,98.4,105,98.4,104,97.8,104,104,102,98.8,105,> 10,> 10,> 10,> 10,> 10,0,0,0,0,0
N[C@@H](Cc1c[nH]c2ccc(O)cc12)C(=O)O [5-hydroxytryptophan],93.3,94.5,92.5,88.8,103,93.6,94.7,94.1,94.4,107,102,97.4,105,106,94.9,100,97.3,99.6,94.2,96.6,98.4,95.7,100,92.3,95.5,> 10,> 10,> 10,> 10,> 10,0,0,0,0,0
NC1(C(=O)O)CC1 [ACPC],92.3,98.6,104,87.7,105,98.6,93.4,93.1,102,96.8,103,98.9,90,99.5,93.4,93.8,96,95.9,96.3,98.1,102,96.9,96.7,94.5,98.4,> 10,> 10,> 10,> 10,> 10,0,0,0,0,0
NS(=O)(=O)c1nn2cc(-c3ccccc3)nc2s1 [AEG3482],99.9,99,102,88.4,89.4,98,104,95.8,95.1,109,87.5,90.2,93,97,94.6,101,98.1,97.8,99.2,100,97.2,97,96.1,94.8,92.1,> 10,> 10,> 10,> 10,> 10,0.4,0,0,0,0
